The results in this text go back to the supplement of paper PMC11208160.
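Further: IS621 bridge recombinase in Escherichia coli cells against a fixed T5 target plasmid.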

The series is described as follows: recombinant UMI read abundance after kanamycin selection (control-corrected) (log10(CPM+1)); higher = more efficient recombination; extreme values may be limits of the assay; sequences stand for … in AGTGCAGAGAAAATCGGCCAGTTTTCTCTGCCTGCAGTCCGCATGCCGTGGGACCCCTTGGGTTCTAACCTGTTGCCTAGATTTATGCAGCGGACTGCCTTTCTCCCAAAGTGATAAACCGG…AGGTTGGTTTCACT; site = the 11-nt donor. Put shortly:
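Reported values are log10(CPM+1) from a pooled Escherichia coli screen of donor and donor-binding-loop pairs for the IS621 bridge recombinase. Selection used IPTG (0.07 mM) plus kanamycin, against unselected plating, each in two replicates. Recombinant UMIs were amplified across the donor–target junction, sequenced, converted to CPM, averaged over replicates and scaled by control-derived factors.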
For “ACGGGGCCATGGACCGGTTTTCCCGGTAATCCGTATTTGCA (site ACGGGGCCTTG)”, the “recombinant UMI read abundance (log10)” value was determined as 0.

Regarding “ACGGTGCCATGGACCGGTTTTCCCGGTAATCCGTATTTGAA (site ACGGTGCCTTT)”, the “recombinant UMI read abundance (log10)” value turned out to be 0.00366.

On to “ACGTACACATGGACCGGTTTTCCCGGTAATCCGTATTTGCA (site ACGTACACTTG)”, for which the “recombinant UMI read abundance (log10)” value stood at 2.71.

Take “ACGTCATCATGGACCGGTTTTCCCGGTAATCCGTATTTGTT (site ACGTCATCTAA)”: the “recombinant UMI read abundance (log10)” value worked out at 1.69.

On to “ACGTCGACATGGACCGGTTTTCCCGGTAATCCGTATTTGTT (site ACGTCGACTAA)”, for which the “recombinant UMI read abundance (log10)” value came to 0.654.

For the sequence “ACGTGAGCATGGACCGGTTTTCCCGGTAATCCGTATTTGCC (site ACGTGAGCTGG)”, the “recombinant UMI read abundance (log10)” value amounted to 2.7.

As for “ACGTGGACATGGACCGGTTTTCCCGGTAATCCGTATTTGTG (site ACGTGGACTCA)”, the “recombinant UMI read abundance (log10)” value is 1.53.

In the case of “ACGTTAGCATGGACCGGTTTTCCCGGTAATCCGTATTTGAT (site ACGTTAGCTAT)”, the “recombinant UMI read abundance (log10)” value was 2.62.

Regarding “ACTAAACCATGGACCGGTTTTCCCGGTAATCCGTATTTGCG (site ACTAAACCTCG)”, the “recombinant UMI read abundance (log10)” value was 0.

“ACTAAATCATGGACCGGTTTTCCCGGTAATCCGTATTTGGC (site ACTAAATCTGC)”: the “recombinant UMI read abundance (log10)” value was determined as 0.218.

Turning to “ACTAATACATGGACCGGTTTTCCCGGTAATCCGTATTTGGC (site ACTAATACTGC)”, the “recombinant UMI read abundance (log10)” value worked out at 0.399.

As for “ACTAATACATGGACCGGTTTTCCCGGTAATCCGTATTTGGC (site CCTAATACTGC)”, the “recombinant UMI read abundance (log10)” value was determined as 0.

In the case of “ACTAATACATGGACCGGTTTTCCCGGTAATCCGTATTTGGC (site GCTAATACTGC)”, the “recombinant UMI read abundance (log10)” value came to 1.02.

“ACTAATACATGGACCGGTTTTCCCGGTAATCCGTATTTGGC (site TCTAATACTGC)”: the “recombinant UMI read abundance (log10)” value turned out to be 1.03.

On to “ACTACAACATGGACCGGTTTTCCCGGTAATCCGTATTTGTG (site ACTACAACTCA)”, for which the “recombinant UMI read abundance (log10)” value came out at 0.339.

Take “ACTACTGCATGGACCGGTTTTCCCGGTAATCCGTATTTGGT (site ACTAATGCTAC)”: the “recombinant UMI read abundance (log10)” value came to 0.0144.

Take “ACTACTGCATGGACCGGTTTTCCCGGTAATCCGTATTTGGT (site ACTACTGCTAC)”: the “recombinant UMI read abundance (log10)” value turned out to be 0.247.

As for “ACTACTGCATGGACCGGTTTTCCCGGTAATCCGTATTTGGT (site ACTAGTGCTAC)”, the “recombinant UMI read abundance (log10)” value stood at 0.0166.

Take “ACTACTGCATGGACCGGTTTTCCCGGTAATCCGTATTTGGT (site ACTATTGCTAC)”: the “recombinant UMI read abundance (log10)” value is 0.00304.

Turning to “ACTAGCACATGGACCGGTTTTCCCGGTAATCCGTATTTGAG (site ACTAGAACTCT)”, the “recombinant UMI read abundance (log10)” value amounted to 0.495.

In the case of “ACTAGCACATGGACCGGTTTTCCCGGTAATCCGTATTTGAG (site ACTAGCACTCT)”, the “recombinant UMI read abundance (log10)” value stood at 1.48.

Consider “ACTAGCACATGGACCGGTTTTCCCGGTAATCCGTATTTGAG (site ACTAGGACTCT)”, for which the “recombinant UMI read abundance (log10)” value came to 0.0266.

“ACTAGCACATGGACCGGTTTTCCCGGTAATCCGTATTTGAG (site ACTAGTACTCT)”: the “recombinant UMI read abundance (log10)” value was found to be 0.517.

Regarding “ACTAGCTCATGGACCGGTTTTCCCGGTAATCCGTATTTGTT (site ACTAGCTCTAA)”, the “recombinant UMI read abundance (log10)” value was 0.346.

On to “ACTAGGACATGGACCGGTTTTCCCGGTAATCCGTATTTGCT (site ACTAGGACTAG)”, for which the “recombinant UMI read abundance (log10)” value was 2.36.

“ACTAGGGCATGGACCGGTTTTCCCGGTAATCCGTATTTGAG (site ACTAGGGCTCT)”: the “recombinant UMI read abundance (log10)” value was found to be 1.52.

“ACTAGTGCATGGACCGGTTTTCCCGGTAATCCGTATTTGAT (site ACTAGTGCTAA)”: the “recombinant UMI read abundance (log10)” value worked out at 0.0209.

Regarding “ACTAGTGCATGGACCGGTTTTCCCGGTAATCCGTATTTGAT (site ACTAGTGCTAC)”, the “recombinant UMI read abundance (log10)” value was 0.0203.

“ACTAGTGCATGGACCGGTTTTCCCGGTAATCCGTATTTGAT (site ACTAGTGCTAG)”: the “recombinant UMI read abundance (log10)” value worked out at 0.00388.

In the case of “ACTAGTGCATGGACCGGTTTTCCCGGTAATCCGTATTTGAT (site ACTAGTGCTAT)”, the “recombinant UMI read abundance (log10)” value was 2.1.

On to “ACTAGTGCATGGACCGGTTTTCCCGGTAATCCGTATTTGCT (site ACTAGTGCTAA)”, for which the “recombinant UMI read abundance (log10)” value was 0.335.

With “ACTAGTGCATGGACCGGTTTTCCCGGTAATCCGTATTTGCT (site ACTAGTGCTAC)”, the “recombinant UMI read abundance (log10)” value was determined as 0.00908.

As to “ACTAGTGCATGGACCGGTTTTCCCGGTAATCCGTATTTGCT (site ACTAGTGCTAG)”, the “recombinant UMI read abundance (log10)” value was 1.37.

In the case of “ACTAGTGCATGGACCGGTTTTCCCGGTAATCCGTATTTGCT (site ACTAGTGCTAT)”, the “recombinant UMI read abundance (log10)” value amounted to 0.0101.

For the sequence “ACTATTCCATGGACCGGTTTTCCCGGTAATCCGTATTTGGT (site ACTATTCCTAC)”, the “recombinant UMI read abundance (log10)” value amounted to 0.00382.

In the case of “ACTCAACCATGGACCGGTTTTCCCGGTAATCCGTATTTGGT (site ACTCAACCTAC)”, the “recombinant UMI read abundance (log10)” value came out at 0.00884.

As for “ACTCCGCCATGGACCGGTTTTCCCGGTAATCCGTATTTGTG (site ACTCCGCCTCA)”, the “recombinant UMI read abundance (log10)” value was 0.0108.

Take “ACTCCGTCATGGACCGGTTTTCCCGGTAATCCGTATTTGAT (site ACTCCGTCTAT)”: the “recombinant UMI read abundance (log10)” value worked out at 0.697.

Turning to “ACTCGCACATGGACCGGTTTTCCCGGTAATCCGTATTTGAC (site ACTCGCACTGT)”, the “recombinant UMI read abundance (log10)” value was 2.68.

Turning to “ACTCGGTCATGGACCGGTTTTCCCGGTAATCCGTATTTGTT (site ACTCGGTCTAA)”, the “recombinant UMI read abundance (log10)” value turned out to be 0.936.

As to “ACTCGTGCATGGACCGGTTTTCCCGGTAATCCGTATTTGAC (site ACTCGTGCTGT)”, the “recombinant UMI read abundance (log10)” value was 2.56.

On to “ACTCGTGCATGGACCGGTTTTCCCGGTAATCCGTATTTGAG (site ACTCGTGCTCT)”, for which the “recombinant UMI read abundance (log10)” value is 1.4.

Regarding “ACTCTTTCATGGACCGGTTTTCCCGGTAATCCGTATTTGTT (site ACTCTTTCTAA)”, the “recombinant UMI read abundance (log10)” value was 0.0432.

In the case of “ACTGAGGCATGGACCGGTTTTCCCGGTAATCCGTATTTGAA (site ACTGAGGCTTT)”, the “recombinant UMI read abundance (log10)” value was found to be 1.73.

“ACTGCAGCATGGACCGGTTTTCCCGGTAATCCGTATTTGCA (site ACTGCAGCTTG)”: the “recombinant UMI read abundance (log10)” value was 1.21.

“ACTGTACCATGGACCGGTTTTCCCGGTAATCCGTATTTGCA (site ACAGTATCTTG)”: the “recombinant UMI read abundance (log10)” value came out at 0.00951.

As to “ACTGTACCATGGACCGGTTTTCCCGGTAATCCGTATTTGCA (site ACTGTACCTTG)”, the “recombinant UMI read abundance (log10)” value amounted to 0.

On to “ACTGTGTCATGGACCGGTTTTCCCGGTAATCCGTATTTGAC (site AATGTGTCTGT)”, for which the “recombinant UMI read abundance (log10)” value turned out to be 0.

With “ACTGTGTCATGGACCGGTTTTCCCGGTAATCCGTATTTGAC (site ACTGTGTCTGT)”, the “recombinant UMI read abundance (log10)” value turned out to be 0.

In the case of “ACTGTGTCATGGACCGGTTTTCCCGGTAATCCGTATTTGAC (site AGTGTGTCTGT)”, the “recombinant UMI read abundance (log10)” value was determined as 0.

For the sequence “ACTGTGTCATGGACCGGTTTTCCCGGTAATCCGTATTTGAC (site ATTGTGTCTGT)”, the “recombinant UMI read abundance (log10)” value was 0.

As for “ACTTAATCATGGACCGGTTTTCCCGGTAATCCGTATTTGTA (site ACTTAATCTTA)”, the “recombinant UMI read abundance (log10)” value is 2.15.
